Source: ChEMBL document CHEMBL3638675, “Alkoxy pyrimidine PDE10 inhibitors” (2014)

Molecular target: cAMP and cAMP-inhibited cGMP 3',5'-cyclic phosphodiesterase 10A (Homo sapiens, UniProt Q9Y233)
Assay: Fluorescence Polarization Assay: The activity of the compounds in accordance with the present invention as PDE10 inhibitors may be readily determined without undue experimentation using a fluorescence polarization (FP) methodology that is well known in the art (Huang, W., et al., J. Biomol Screen, 2002, 7: 215). […] In a typical experiment the PDE10 inhibitory activity of the compounds of the present invention was determined in accordance with the following experimental method. PDE10A2 was amplified from human fetal brain cDNA (Clontech, Mountain View, Calif.) using a forward primer corresponding to nucleotides 56-77 of human PDE10A2 (Accession No. AF127480, Genbank Identifier 4894716), containing a Kozak consensus sequence, and a reverse primer corresponding to nucleotides 2406-2413 of human PDE10A2.

Chain of cAMP and cAMP-inhibited cGMP 3',5'-cyclic phosphodiesterase 10A (Q9Y233 whole entry): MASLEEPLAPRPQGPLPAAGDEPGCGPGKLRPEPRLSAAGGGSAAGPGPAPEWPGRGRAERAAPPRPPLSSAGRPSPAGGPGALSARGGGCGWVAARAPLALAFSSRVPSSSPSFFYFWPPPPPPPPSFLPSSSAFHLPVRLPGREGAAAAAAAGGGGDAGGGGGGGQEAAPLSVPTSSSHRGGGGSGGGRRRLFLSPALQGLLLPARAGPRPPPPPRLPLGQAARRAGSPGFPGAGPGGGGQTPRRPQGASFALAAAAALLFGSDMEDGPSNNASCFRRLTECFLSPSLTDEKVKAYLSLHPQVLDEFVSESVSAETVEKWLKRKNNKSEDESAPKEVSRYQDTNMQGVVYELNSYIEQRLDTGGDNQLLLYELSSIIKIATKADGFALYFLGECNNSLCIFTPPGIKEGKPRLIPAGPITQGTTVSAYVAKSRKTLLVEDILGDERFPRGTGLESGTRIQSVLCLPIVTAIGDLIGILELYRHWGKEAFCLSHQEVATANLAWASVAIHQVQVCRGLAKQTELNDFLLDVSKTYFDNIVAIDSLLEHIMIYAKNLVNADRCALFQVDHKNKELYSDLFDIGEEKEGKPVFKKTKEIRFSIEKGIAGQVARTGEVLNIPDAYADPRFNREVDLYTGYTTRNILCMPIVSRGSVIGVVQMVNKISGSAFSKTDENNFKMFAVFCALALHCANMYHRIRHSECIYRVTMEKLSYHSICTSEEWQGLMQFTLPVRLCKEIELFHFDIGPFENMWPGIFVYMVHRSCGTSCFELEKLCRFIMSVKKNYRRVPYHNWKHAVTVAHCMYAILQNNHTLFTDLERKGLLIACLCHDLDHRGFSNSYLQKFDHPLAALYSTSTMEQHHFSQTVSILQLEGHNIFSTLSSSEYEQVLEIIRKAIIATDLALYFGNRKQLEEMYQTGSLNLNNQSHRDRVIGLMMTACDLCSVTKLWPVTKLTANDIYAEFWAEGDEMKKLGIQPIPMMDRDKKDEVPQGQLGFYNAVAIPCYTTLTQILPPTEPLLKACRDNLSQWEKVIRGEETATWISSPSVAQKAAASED

| Ki [nM] | SMILES |
| --- | --- |
| 0.0006 | Cc1nc(C)c(CNc2nc(OC[C@@H]3C[C@H]3c3ccc4ccccc4n3)nc(Cl)c2C)s1 |
| 0.019 | Cc1c(Cl)nc(OC[C@@H]2C[C@H]2c2ccc3ncccc3n2)nc1NCc1cnn(C)c1 |
| 0.17 | COc1nc(OC[C@H]2C[C@@H]2c2ccc3ncccc3n2)nc(NCc2cnn(C)c2)c1C |
